Publication PMC3622158 (Photochemistry and photobiology, 2013)

Columns and labels:
[1] = in aqueous solution; standards of the RNO assay; cited from earlier work
[2] = test system: red blood cells (RBCs); assay: Fluorescence and bright field microscopy of RBCs and ghosts; assay type: cell-based; conditions: Figure 2A; for association with RBCs prior to irradiation (fluorescence distribution): RBCs incubated with compound, fluorescence microscopy; for morphology of RBCs incubated with compound before irradiation: bright field microscopy
[3] = test system: red blood cells (RBCs); assay: Photohemolysis assay of fluorescently labeled CPPs; assay type: cell-based; conditions: singlet oxygen quencher/inhibitor added to TMR-TAT and RBCs; Figure 1B
[4] = test system: red blood cells (RBCs)

Molecule	singlet oxygen quantum yield [1]	association with RBCs prior to irradiation (fluorescence distribution) [2]	morphology of RBCs incubated with compound before irradiation [2]	effect on TMR-TAT mediated photohemolysis [3]	other results
O=C1OC2(c3ccccc31)c1cc(Br)c(O)c(Br)c1Oc1c2cc(Br)c(O)c1Br [eosin Y]	0.57				
CC1=C(CCC(=O)O)c2cc3[nH]c(cc4nc(cc5[nH]c(cc1n2)c(C)c5C(C)O)C(C)=C4C(C)O)c(C)c3CCC(=O)O (stereo not shown) [HP, hematoporphyrin]		strong fluorescence signals were present on the surface of the cells	formed echinocytes		
CC(=O)Oc1c(C)c(C)c2c(c1C)CCC(C)(CCC[C@H](C)CCC[C@H](C)CCCC(C)C)O2 (stereo partly drawn) [tocopherol, α-tocopheryl acetate]				significant decrease in photohemolytic activity	
CC(/C=C/C=C(\C)C(=O)O)=C\C=C\C=C(C)\C=C\C=C(/C)C(=O)O [crocetin]				significant decrease in photohemolytic activity	
GRRRRRRRRR-NH2 [R9]					lysis with RB and peptide co-incubated ([4]; RB and R9 co-incubated during irradiation, same conditions, data not shown): 93±3%; lytic effect of peptides alone ([4]; in the dark or when cells were irradiated without RB present): not lytic by themselves
O=C1OC2(c3cc(I)c(O)c(I)c3Oc3c2cc(I)c(O)c3I)c2c(Cl)c(Cl)c(Cl)c(Cl)c21 [RB, Rose Bengal]	0.76	strong fluorescence signals were present on the surface of the cells	formed echinocytes		
